Measurements reported in BindingDB's records for doi:10.1016/j.bmcl.2008.07.045 (Korea Research Institute of Bioscience and Biotechnology, 2008).

Legend:
[1] = Inhibition of sICAM1/LFA1 interaction-mediated human THP1 cell adhesion after 1 hr by ELISA
[2] = target: Intercellular adhesion molecule 1 (Homo sapiens, UniProt P05362); test: Inhibition of sICAM1/LFA1 interaction-mediated human THP1 cell adhesion after 1 hr by ELISA
Intercellular adhesion molecule 1, sequence (P05362 whole entry): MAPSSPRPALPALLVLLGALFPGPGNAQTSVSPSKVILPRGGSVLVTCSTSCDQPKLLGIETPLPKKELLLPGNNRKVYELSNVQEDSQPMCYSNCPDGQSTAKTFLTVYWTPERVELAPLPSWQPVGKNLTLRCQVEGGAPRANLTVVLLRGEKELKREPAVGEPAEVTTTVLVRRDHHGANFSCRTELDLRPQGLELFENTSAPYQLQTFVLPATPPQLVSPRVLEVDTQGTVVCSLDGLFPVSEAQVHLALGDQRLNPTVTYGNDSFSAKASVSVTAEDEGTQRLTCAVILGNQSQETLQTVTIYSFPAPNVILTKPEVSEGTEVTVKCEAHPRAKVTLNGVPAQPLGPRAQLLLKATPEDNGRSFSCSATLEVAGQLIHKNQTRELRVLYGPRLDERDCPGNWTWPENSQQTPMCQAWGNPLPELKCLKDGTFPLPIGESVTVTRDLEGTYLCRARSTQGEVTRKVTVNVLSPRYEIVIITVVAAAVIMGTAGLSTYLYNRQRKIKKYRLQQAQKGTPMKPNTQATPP

| SMILES | IC50 [1] | IC50 [2] |
| --- | --- | --- |
| O=C(/C=C/CCCC/C=C/c1ccc2c(c1)OCO2)N1CCCCC1 [Pipernonaline] | 25.7 µM | – |
| O=C(/C=C/C=C\CC/C=C/c1ccc2c(c1)OCO2)N1CCCCC1 | – | 32.4 µM |
| O=C(CCCCCC/C=C/c1ccc2c(c1)OCO2)N1CCCCC1 [PIPERROLEIN B] | – | 37.8 µM |
| CCCCC/C=C/C=C/C(=O)NCC(C)C [CHEBI:69686] | – | 62.6 µM |
| CC(C)CNC(=O)/C=C/CCCC/C=C/c1ccc2c(c1)OCO2 [RETROFRACTAMIDE C] | > 151 µM | – |
| CC(C)CNC(=O)/C=C/C=C/CCCCCC/C=C/c1ccc2c(c1)OCO2 [Guineensine] | > 130 µM | – |
| O=C(/C=C/C=C/CC/C=C/c1ccc2c(c1)OCO2)N1CCCCC1 [Dehydropipernoline] | 17.6 µM | – |
| CC(C)CNC(=O)/C=C/CCCCCC/C=C/c1ccc2c(c1)OCO2 [PIPERCHABAMIDE D] | 83.9 µM | – |
